“Also recorded” adds a separate entry of the source.

Test [1] deals with Acute promyelocytic leukemia cells. The following applies: differentiated down the neutrophil lineage for three days; cited from earlier work.
The test system of test [2] is P. falciparum-infected RBCs (iRBCs) and co-cultured uninfected RBCs (uRBCs). The test is described as follows: Microfluidic deformability cytometer: RBC mobility after artesunate treatment. It counts as cell-based, human. Conditions: for separation resolution between iRBCs and uRBCs: after drug treatment vs without. On the procedure:
The deformability of both iRBCs and uRBCs were measured at 2, 4 and 6 hours after artesunate drug treatment (FIG. 60). A synchronized culture of rings with ˜15% parasitemia was resuspended at 0.1% hematocrit in malaria culture medium containing 0.01, 0.05 or 0.1 μg/ml of artesunate.
Layout program CleWin3.0 was used to design the microfluidic device, which consists of a 500×500 μm^2 inlet reservoir, a 500×500 μm^2 outlet reservoir, and parallel capillary channels with triangular pillar arrays (FIG. 55A). Three different pore-size of 2.5, 3.0 and 4.0 μm were designed for the capillary channels to test optimum deformation condition for the experiment. A silicon mold of the device was made using standard silicon processing techniques. The photolithography step was done using a 5× reduction step-and-repeat projection stepper (Nikon NSR2005i9, Nikon Prevision) and reactive-ion etching (RIE) techniques were used to give the mold a final depth of 4.2 μm. Final device was then casted from the silicon mold using polydimethylsiloxane (PDMS) and was sealed by a glass slide using oxygen plasma.
P. falciparum 3D7A parasites (from Malaria Research and Reference Reagent Source, American Type Culture Collection) were cultured in leukocyte-free human RBCs (Research Blood Components, Brighton Mass.) in RPMI 1640 complete medium as described (Trager and Jensen J. parasitol. 2005). Parasites cultures were synchronized by sorbitol lysis (Lambros, C 1979 J. parasitol.) two hours after merozoite invasion.
1× Phosphate buffered saline (PBS) was mixed with 1% w/v Bovine Serum Albumin (BSA) (Sigma-Aldrich, St. Louis, Mo.) as a stock solution and was fresh made on every experimental day. For experiments tracking fluid flow velocity, 200 nm FluoSpheres europium luminescent microspheres (Molecular Probes, Eugene, Oreg.) were used at a final concentration of 5.0×10^−[…] percent solids. For experiments involving only healthy RBCs, fresh whole blood (Research Blood Components, Brighton, Mass.) was used at 100 times dilution (i.e. 1 μl whole blood with 99 μl stock solution). For experiments involving parasitized cells, 1 ml of cultured cells were spun down at 1,000 rpm for 5 minute; 1 μl of the pellet was then aliquot to 200 μl stock solution.
10 μl of 1×10^−6M thiazole orange Orange (Invitrogen, Carlsbad, Calif.), which stains the RNA of the cell, was added to the aforementioned 200 μl iRBC solution 20 minutes before the experiment. The infected cells would appear fluorescent under the GFP filter set whereas the uninfected cells were seen as dark shadows.
To control the ambient temperature, the microscope surface was replaced by a heating chamber (Olympus), which was preheated to a desired temperature range (i.e. 30-40° C.) for 30 minutes before the beginning of every experiment. […]

The test system of test [3] is RBCs. The test is described as follows: Deformability cytometer: velocity and passage of glutaraldehyde-treated RBCs. The class given is cell-based, human. The following applies: 30 minutes in PBS; about 0.61 Pa/μm; FIG. 5B. The source says:
A mold of the device was made on a silicon wafer using photolithography and reactive-ion etching techniques. A 5× reduction step-and-repeat projection stepper (Nikon NSR2005i9, Nikon Precision) was used for patterning. The spacing between pillars was 3 μm, and the depth of the device was 4.2 μm. The device was made using standard PDMS casting protocols and bonded to a glass slide.
PBS was mixed with 0.2% w/v Pluronic F-108 (BASF, Mount Olive, N.J.) and 1% w/v Bovine Serum Albumin (BSA) (Sigma-Aldrich, St. Louis, Mo.) as a stock solution to prevent RBC adhesion to the device walls. For the fluorescent bead experiments, 200 nm FluoSpheres europium luminescent microspheres (Molecular Probes, Eugene, Oreg.) diluted to a final concentration of 1.25×10^−5 percent solids were used.
In experiments involving blood, 1 μl of whole blood (−50% hematocrit) was diluted in 100 μl of the PBS-pluronic-BSA solution for all of the experiments. In experiments involving parasites that express GFP, no further treatment was performed. In experiments involving healthy RBCs, 1 μl of whole blood (Research Blood Components, Brighton, Mass.), 1 μl of 50 μg/ml of Cell Tracker Orange (Invitrogen, Carlsbad, Calif.), and 98 μl of PBS were mixed with the indicated concentration of glutaraldehyde and allowed to sit for 30 minutes. The sample was then washed 3 times with the PBS-Pluronic-BSA solution. […]

Test [4] has as its system WAS−/− T cells. Nature of the test: In vitro Transwell cell migration toward CCL19 (WAS−/−). It counts as cell-based, mouse. Conditions: seven hours of exposure to CCL19; 5-μm pore Transwell. As to the method: (§1) Enriched WT and WAS−/− T cells in DMEM with 1% BSA and 0.1% Pen/Strep were induced to migrate through polycarbonate Transwell inserts (Costar, Cambridge, Mass.) with 5-μm pores in a 24-well plate toward a CCL19 chemokine source (R&D Systems, Minneapolis, Minn.). Inserts contained 5×10^5 cells in 100 μL of medium, and wells contained 1 mL of medium with either no CCL19 or 100 ng/mL of CCL19. Cells were allowed to migrate for ˜7 hours at 37° C., and those that crossed the membrane were collected and used for MPA studies.

In test [5] the test system is WAS−/− T cells. Nature of the test: Micropipette aspiration of chemokine-stimulated migratory T cells (WAS−/−). The class given is cell-based, mouse. Conditions: naïve WAS−/− T cells that migrated toward CCL19 100 ng/mL, ~7 hours; mean+/−SD. As to the method: (§2) Cells from the peripheral lymph nodes and the spleen of Balb/c mice and WAS−/− mice on Balb/c background were pooled and enriched using the EasySep Mouse CD8+ T Cell Enrichment Kit from STEMCELL Technologies (British Columbia, Canada). Enrichment was confirmed using fluorescence-activated cell sorting (FACS) by staining the cells with FITC/anti-Thy1.2 and PE/anti-CD8α antibodies (Abs). The'memory T cell population was assessed by evaluating the expression of CD44 and CD62L via FACS. T cells in an activation medium with 100 units/mL IL-2 and 1% anti-CD28 Ab were activated by plate-bound anti-CD3 Abs for 4 day at 37° C. The activation medium included RPMI with 10% FBS, 10 mM HEPES (1M), 1% NEAA, 1% sodium pyruvate (100 mM), 50 μM β-mercaptoethanol, 4 mM L-glutamine, and 100 μg/mL Pen/Strep. Cell activation was verified via FACS measurement of CD25.
Micropipettes made using a micropipette puller were trimmed to 2.5-3 or 4.5-5 μm inner diameter for testing naïve and activated T cells. MPA glass chambers consisted of a 24 mm×60 mm microscope coverslip bottom, a U-shaped parafilm spacer, and a 22 mm×22 mm microscope coverslip top. The assembly was baked for two hours at 80° C. to ensure good adhesion between the components. […]
3×10^5 cells in 100 μL RPMI with 10% FBS and 1% HEPES was stained with 10 μL trypan blue. […] The cell movement in the micropipette was recorded with a CCD camera. […]

Test [6] concerns WT T cells. Nature of the test: Micropipette aspiration of chemokine-stimulated migratory T cells (WT). It counts as cell-based, mouse. As to the method: as §2
Micropipettes made using a micropipette puller were trimmed to 2.5-3 or 4.5-5 μm inner diameter for testing naïve and activated T cells. MPA glass chambers consisted of a 24 mm×60 mm microscope coverslip bottom, a U-shaped parafilm spacer, and a 22 mm×22 mm microscope coverslip top. The assembly was baked for two hours at 80° C. to ensure good adhesion between the components.
as §1
3×10^5 cells in 100 μL RPMI with 10% FBS and 1% HEPES was stained with 10 μL trypan blue. The mixture was added to 600 μL of either the RPMI medium or the T cell activation medium with IL-2 for naïve and activated T cell testing. […] The cell movement in the micropipette was recorded with a CCD camera. […]

In the case of `CC1=C(/C=C/C(C)=C/C=C/C(C)=C/C(=O)O)C(C)(C)CCC1` [all-trans retinoic acid], the “compliance increase vs control” value in test [1] is reported as 45%.
For `C[C@H]1[C@H](OC(=O)CCC(=O)O)O[C@@H]2O[C@@]3(C)CC[C@H]4[C@H](C)CC[C@@H]1[C@@]24OO3` [artesunate], the “cell mobility change due to drug treatment” value in test [2] (FIG. 60, 2, 4 and 6 hours, 0.01 to 0.1 μg/ml) is reported as “significant decrease in cell mobility”. Also, in test [2] (after artesunate treatment), the “stiffening effect on iRBCs and uRBCs” value is “stiffening effect on both iRBCs and uRBCs; also recorded: both iRBCs and uRBCs stiffened considerably”. For the same molecule, the “separation resolution between iRBCs and uRBCs” value is “almost doubled” in test [2] and “doubled” in test [2] (listed as Artesunate).
With `O=CCCCC=O` [glutaraldehyde], the “RBC stiffness / velocity with increasing concentration” value in test [3] is “progressively stiffer with decreasing velocity”.

B1: CCL19: chemokine (R&D Systems) used as chemoattractant for T cells (protein, UniProt Q99731 22-98, looked up)
C-C motif chemokine 19: GTNDAEDCCLSVTQKPIPGYIVRNFHYLLIKDGCRVPAVVFTTLRGRQLCAPPDQPWVERIIQRLQRTSAKMKRRSS
For B1, the cells migrated in test [4] is on record as about 6.4%. The “average apparent Young's modulus” value is reported as 152+/−102 Pa in test [5] and 128+/−33 Pa in test [6] (naïve WT T cells that migrated toward CCL19 100 ng/mL, ~7 hours, mean+/−SD). The “reduction of modulus from the value in the absence of CCL19” value in test [6] (migratory WT cells) is listed as “more than 2 times”. The “stiffness relative to activated cells” value in test [6] (migratory WT cells vs activated WT T cells) is “about 1.4 times”.
